PubChem BioAssay AID1963974 (Molecular Pharmacology Branch, DTP, NCI, 2024)

System: 648629-189-R-J1-PDC spheroids with HUVEC/MSC, viability
Assay: Anticancer human tumor 648629-189-R-J1-PDC patient-derived bladder carcinoma cell line growth inhibition [PI3K]
Settings: for viability, T/C: stronger effect = lower value
How it was run: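 Agents were dosed from a top concentration near clinical Cmax (otherwise 10 microM) in half-log decrements, alone or combined with PI3K inhibitors. The spheroids contain tumor cells plus endothelial (HUVEC) and MSC stroma; viability is measured.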

[1] = curve of first compound, second compound 0.0316 µM
[2] = curve of first compound, second compound 0.1 µM
[3] = curve of first compound, second compound 0.316 µM
[4] = curve of first compound, second compound 1 µM
[5] = curve of first compound, second compound 3.16 µM
[6] = curve of first compound, second compound 10 µM
[7] = second compound 0.0316 µM, first compound 0.0316 µM
[8] = second compound 0.0316 µM, first compound 0.1 µM
[9] = second compound 0.0316 µM, first compound 0.316 µM
[10] = second compound 0.0316 µM, first compound 1 µM
[11] = second compound 0.0316 µM, first compound 3.16 µM
[12] = second compound 0.0316 µM, first compound 10 µM
[13] = second compound 0.1 µM, first compound 0.0316 µM
[14] = second compound 0.1 µM, first compound 0.1 µM
[15] = second compound 0.1 µM, first compound 0.316 µM
[16] = second compound 0.1 µM, first compound 1 µM
[17] = second compound 0.1 µM, first compound 3.16 µM
[18] = second compound 0.1 µM, first compound 10 µM
[19] = second compound 0.316 µM, first compound 0.0316 µM
[20] = second compound 0.316 µM, first compound 0.1 µM
[21] = second compound 0.316 µM, first compound 0.316 µM
[22] = second compound 0.316 µM, first compound 1 µM
[23] = second compound 0.316 µM, first compound 3.16 µM
[24] = second compound 0.316 µM, first compound 10 µM
[25] = second compound 1 µM, first compound 0.0316 µM
[26] = second compound 1 µM, first compound 0.1 µM
[27] = second compound 1 µM, first compound 0.316 µM
[28] = second compound 1 µM, first compound 1 µM
[29] = second compound 1 µM, first compound 3.16 µM
[30] = second compound 1 µM, first compound 10 µM
[31] = second compound 3.16 µM, first compound 0.0316 µM
[32] = second compound 3.16 µM, first compound 0.1 µM
[33] = second compound 3.16 µM, first compound 0.316 µM
[34] = second compound 3.16 µM, first compound 1 µM
[35] = second compound 3.16 µM, first compound 3.16 µM
[36] = second compound 3.16 µM, first compound 10 µM
[37] = second compound 10 µM, first compound 0.0316 µM
[38] = second compound 10 µM, first compound 0.1 µM
[39] = second compound 10 µM, first compound 0.316 µM
[40] = second compound 10 µM, first compound 1 µM
[41] = second compound 10 µM, first compound 3.16 µM
[42] = second compound 10 µM, first compound 10 µM
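Also: spheroids exposed to agents for seven days before reading.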
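For viability, T/C in this document: percent of vehicle control luminescence where 100% = DMSO treated spheroids.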

Question: For `CC(Cn1ccc(-c2ccc(C#N)c(Cl)c2)n1)NC(=O)c1cc(C(C)O)[nH]n1` (stereo not drawn) + Cc1nc(NC(=O)N2CCCC2C(N)=O)sc1-c1ccnc(C(C)(C)C(F)(F)F)c1, which IC50 [1] is on record?
Answer: > 10 µM

Question: And the IC50 [2]?
Answer: > 10 µM

Question: And the IC50 [3]?
Answer: > 10 µM

Question: And the IC50 [4]?
Answer: > 10 µM

Question: And the IC50 [5]?
Answer: > 10 µM

Question: What about the IC50 [6] of the same compound?
Answer: < 0.0316 µM

Question: What about the viability, T/C [7] of the same compound?
Answer: 86.5%

Question: What about the viability, T/C [8] of the same compound?
Answer: 95.8%

Question: And the viability, T/C [9]?
Answer: 95.9%

Question: What about the viability, T/C [10] of the same compound?
Answer: 87.5%

Question: What about the viability, T/C [11] of the same compound?
Answer: 82.8%

Question: And the viability, T/C [12]?
Answer: 67.1%

Question: What about the viability, T/C [13] of the same compound?
Answer: 92.4%

Question: And the viability, T/C [14]?
Answer: 91.8%

Question: And the viability, T/C [15]?
Answer: 87.7%

Question: And the viability, T/C [16]?
Answer: 89.6%

Question: And the viability, T/C [17]?
Answer: 77.7%

Question: What about the viability, T/C [18] of the same compound?
Answer: 66.2%

Question: What about the viability, T/C [19] of the same compound?
Answer: 91.5%

Question: And the viability, T/C [20]?
Answer: 84.6%

Question: What about the viability, T/C [21] of the same compound?
Answer: 87.3%

Question: And the viability, T/C [22]?
Answer: 81.5%

Question: And the viability, T/C [23]?
Answer: 78.1%

Question: What about the viability, T/C [24] of the same compound?
Answer: 68.2%

Question: And the viability, T/C [25]?
Answer: 70.8%

Question: And the viability, T/C [26]?
Answer: 74.2%

Question: What about the viability, T/C [27] of the same compound?
Answer: 68.1%

Question: And the viability, T/C [28]?
Answer: 69.9%

Question: What about the viability, T/C [29] of the same compound?
Answer: 63.9%

Question: What about the viability, T/C [30] of the same compound?
Answer: 62.3%

Question: What about the viability, T/C [31] of the same compound?
Answer: 53.1%

Question: What about the viability, T/C [32] of the same compound?
Answer: 54.6%

Question: What about the viability, T/C [33] of the same compound?
Answer: 47.4%

Question: What about the viability, T/C [34] of the same compound?
Answer: 51.5%

Question: And the viability, T/C [35]?
Answer: 57.1%

Question: What about the viability, T/C [36] of the same compound?
Answer: 52.6%

Question: And the viability, T/C [37]?
Answer: 38.5%

Question: And the viability, T/C [38]?
Answer: 38.6%

Question: What about the viability, T/C [39] of the same compound?
Answer: 35.4%

Question: And the viability, T/C [40]?
Answer: 40.4%

Question: And the viability, T/C [41]?
Answer: 36.9%

Question: What about the viability, T/C [42] of the same compound?
Answer: 37.4%

Question: For `C=CC(=O)N1CCN(c2nc(=O)n(-c3c(C)ccnc3C(C)C)c3nc(-c4c(O)cccc4F)c(F)cc23)C(C)C1` (stereo not drawn) + CC(Nc1ccc2c(c1)OCCn1cc(N3C(=O)OCC3C(F)F)nc1-2)C(N)=O, which IC50 (curve of first compound, second compound 0.00316 µM) is on record?
Answer: > 10 µM

Question: And the IC50 (curve of first compound, second compound 0.01 µM)?
Answer: > 10 µM

Question: And the IC50 [1]?
Answer: > 10 µM

Question: What about the IC50 [2] of the same compound?
Answer: > 10 µM

Question: And the IC50 [3]?
Answer: > 10 µM

Question: What about the IC50 [4] of the same compound?
Answer: > 10 µM

Question: What about the viability, T/C (second compound 0.00316 µM, first compound 0.0316 µM) of the same compound?
Answer: 111%

Question: What about the viability, T/C (second compound 0.00316 µM, first compound 0.1 µM) of the same compound?
Answer: 99.1%

Question: What about the viability, T/C (second compound 0.00316 µM, first compound 0.316 µM) of the same compound?
Answer: 117%

Question: What about the viability, T/C (second compound 0.00316 µM, first compound 1 µM) of the same compound?
Answer: 105%

Question: And the viability, T/C (second compound 0.00316 µM, first compound 3.16 µM)?
Answer: 106%

Question: What about the viability, T/C (second compound 0.00316 µM, first compound 10 µM) of the same compound?
Answer: 92.3%

Question: And the viability, T/C (second compound 0.01 µM, first compound 0.0316 µM)?
Answer: 121%

Question: And the viability, T/C (second compound 0.01 µM, first compound 0.1 µM)?
Answer: 106%

Question: What about the viability, T/C (second compound 0.01 µM, first compound 0.316 µM) of the same compound?
Answer: 111%

Question: And the viability, T/C (second compound 0.01 µM, first compound 1 µM)?
Answer: 114%

Question: What about the viability, T/C (second compound 0.01 µM, first compound 3.16 µM) of the same compound?
Answer: 115%

Question: And the viability, T/C (second compound 0.01 µM, first compound 10 µM)?
Answer: 92.3%

Question: And the viability, T/C [7]?
Answer: 101%

Question: What about the viability, T/C [8] of the same compound?
Answer: 108%

Question: And the viability, T/C [9]?
Answer: 98.2%

Question: What about the viability, T/C [10] of the same compound?
Answer: 106%

Question: What about the viability, T/C [11] of the same compound?
Answer: 123%

Question: What about the viability, T/C [12] of the same compound?
Answer: 92.5%

Question: And the viability, T/C [13]?
Answer: 92.4%

Question: And the viability, T/C [14]?
Answer: 106%

Question: And the viability, T/C [15]?
Answer: 107%

Question: And the viability, T/C [16]?
Answer: 115%

Question: What about the viability, T/C [17] of the same compound?
Answer: 103%

Question: And the viability, T/C [18]?
Answer: 92.5%

Question: And the viability, T/C [19]?
Answer: 92.6%

Question: What about the viability, T/C [20] of the same compound?
Answer: 93.1%

Question: What about the viability, T/C [21] of the same compound?
Answer: 84.1%

Question: What about the viability, T/C [22] of the same compound?
Answer: 95.2%

Question: What about the viability, T/C [23] of the same compound?
Answer: 84.5%

Question: What about the viability, T/C [24] of the same compound?
Answer: 78.1%

Question: And the viability, T/C [25]?
Answer: 73.1%

Question: What about the viability, T/C [26] of the same compound?
Answer: 71.9%

Question: What about the viability, T/C [27] of the same compound?
Answer: 73.5%

Question: And the viability, T/C [28]?
Answer: 80.7%

Question: What about the viability, T/C [29] of the same compound?
Answer: 91.8%

Question: What about the viability, T/C [30] of the same compound?
Answer: 66.2%

Question: What does the source list for `Cn1ncc(Cl)c1-c1cc(C(=O)NC(CN)Cc2cccc(F)c2)sc1Cl` (stereo not drawn) + Cc1nc(NC(=O)N2CCCC2C(N)=O)sc1-c1ccnc(C(C)(C)C(F)(F)F)c1?
Answer: IC50 [1]: 0.51 µM; IC50 [2]: 0.405 µM; IC50 [3]: 0.312 µM; IC50 [4]: 0.218 µM; IC50 [5]: 0.0759 µM; IC50 [6]: < 0.0316 µM; viability, T/C [7]: 105%; viability, T/C [8]: 97%; viability, T/C [9]: 55.6%; viability, T/C [10]: 34.7%; viability, T/C [11]: 17.9%; viability, T/C [12]: 2.36%; viability, T/C [13]: 90.8%; viability, T/C [14]: 76.8%; viability, T/C [15]: 56.9%; viability, T/C [16]: 27.6%; viability, T/C [17]: 17.5%; viability, T/C [18]: 1.87%; viability, T/C [19]: 89.6%; viability, T/C [20]: 73.8%; viability, T/C [21]: 48.2%; viability, T/C [22]: 28%; viability, T/C [23]: 15.1%; viability, T/C [24]: 1.73%; viability, T/C [25]: 72.8%; viability, T/C [26]: 66.6%; viability, T/C [27]: 41%; viability, T/C [28]: 23.3%; viability, T/C [29]: 13.6%; viability, T/C [30]: 1.42%; viability, T/C [31]: 55.2%; viability, T/C [32]: 50.3%; viability, T/C [33]: 34.4%; viability, T/C [34]: 20.5%; viability, T/C [35]: 12.2%; viability, T/C [36]: 1.25%; viability, T/C [37]: 36.9%; viability, T/C [38]: 31.7%; viability, T/C [39]: 20.4%; viability, T/C [40]: 13.5%; viability, T/C [41]: 7.71%; viability, T/C [42]: 0.35%

Question: Which results are given for `Cc1nc(NC(=O)N2CCCC2C(N)=O)sc1-c1ccnc(C(C)(C)C(F)(F)F)c1` (stereo not drawn)?
Answer: viability, T/C (compound 0.0316 µM): 103% [middle of 8 runs]; viability, T/C (compound 0.1 µM): 101% [middle of 8 runs]; viability, T/C (compound 0.316 µM): 95.9% [middle of 8 runs]; viability, T/C (compound 1 µM): 77.4% [middle of 8 runs]; viability, T/C (compound 3.16 µM): 60% [middle of 8 runs]; viability, T/C (compound 10 µM): 37.3% [middle of 8 runs]; IC50 (compound alone, run of 04/24/2023): 5.36 µM [middle of 8 runs]
